# “Also recorded” adds a separate entry of the source. Where a name gives a salt, the structure may show the parent alone.
# Assays:
# human tumor cells = test: Human tumor biopsy assay, tumors in general; format: cell-based; conditions: 20 μM NCO-700 plus vinblastine or adriamycin
# Experimental: (§1) 4. Human Tumor Biopsy Assays
# (§2) where the effect of NCO-700 to enhance killing, by either vinblastine or adriamycin, of cancer cells cultured directly from patient's tumors (Von Hoff et al., Cancer Res. 43:1926-1931, 1983).
# (§3) For the tumor biopsy assay, primary cell cultures were propagated directly from tumor specimens removed from patients. The cells were grown in suspension culture, treated with adriamycin or vinblastine plus NCO-700, and plated onto soft agar and incubated for two weeks before cell survival was determined.
# (§4) In a final series of experiments, the effect of NCO-700 on survival of cells cultured directly from biopsied patient tumors was performed. This technique, referred to as a human tumor cloning system, was developed by Von Hoff and associates (Von Hoff et al., Cancer Res. 43:1926-1931, 1983) and was used clinically to predict the course of chemotherapy for these patients. In this method, tumor biopsies were separated into cell suspensions and treated for 1 hour with either 0.4 mg/ml vinblastine (VLB) or 0.5 mg/ml adriamycin (ADR) plus or minus 20 μM NCO-700. The cell suspensions were washed after one hour of incubation and plated with soft agar. After 14 days of incubation at 37°, the percent of colonies surviving was scored. […] In particular, the survival of tumor cells decreased to approximately 1/2 to 1/3 after exposure to NCO-700 and adriamycin. […]
# [1] = system: human breast cancer cells; test: Subrenal capsule (SRC) tumor implant assay, breast cancer; format: in vivo, human tumor in BDF/1 mice
# Experimental: FIG. 18 is a graph showing the relationship between the change in size of tumor and the dosage of NCO-700 in a sub-renal capsule assay of human breast cancer in BDF/1 mice.
# A tumor implant model, where human tumors were implanted into the renal capsule of mice was performed. The tumors successfully escaped the immune system of the mouse and grew over a six-day period. The advantage of this assay is that the effect of chemotherapeutic agents can be tested in vivo. This model was developed at the University of California, Irvine by Stratton et al. (Gynecologic Oncology 17:185-188, 1984). Human tumors were implanted on day one and were exposed to drug on days two-six. The size of the implant was determined at time zero and at the end of five days of drug treatment, and the difference in size of the implanted tumor at day six, when compared to control animals not exposed to drug, is referred to herein as the delta mean.
# The effect of NCO-700 on a breast cancer line was tested in the SRC assay. Three groups of animals (n=18 total) were tested with three concentrations of NCO-700 including, 10 mg/kg, 25 mg/kg and 50 mg/kg. […] These studies confirm the high potential of NCO-700 and related compounds as new anti-neoplastic agents.
# colon cancer cell lines = test: Cancer cell death assay (LDH release), colon lines; format: cell-based, human; conditions: compound alone, 24 hours
# Experimental: (§5) 1. Cancer Cell Death Assay
# (§6) Cell death was measured quantitatively by the release of a marker intracellular enzyme, lactate dehydrogenase (LDH), from damaged or killed cells. LDH released into the extracellular fluid, was measured 24 hours after drug exposure to cancer cells and the enzyme activity was determined by the method of Decker et al. (J. Immunolog Methods 15:61-99, 1988).
# (§7) All cell lines used in the present study were obtained from the American Type Tissue Culture Laboratory and cultured according to their specifications. All were human cancer lines unless otherwise noted. The following cell lines and their tissue of origin used in our studies were:
# (§8) The first assays performed measured the anti-neoplastic activity of NCO-700, alone, in cell death assays of a wide variety of human cancer cells. The results of these experiments are shown in FIGS. 1-6, where a dose-response curve of NCO-700 versus % LDH release is plotted, with higher values of LDH released indicating greater anti-neoplastic activity (apoptosis).
# (§9) In FIG. 8, a dose-response curve is shown of the effect of TOP-008 on the killing of breast, prostate and colon cell lines.
# DU-145 (prostate) [2] = test: Cancer cell survival assay, DU-145; format: cell-based, human; conditions: DU-145, seven days, alone
# Experimental: (§10) Cell survival was assayed in cultured tumor cells. From 500-1000 cells per well were plated in 24-welled culture dishes and exposed to drug for seven days. After drug exposure, a computerized cell imaging technique was utilized to ascertain the number of viable cells remaining in each culture. From the data, survival curves were plotted and a ED50 (drug concentration that permits 50% cell survival) were calculated.
# (§11) The cancer cell survival assay is an important additional in vitro assay to assess the anti-neoplastic activity of compounds as the cells are given a prolonged exposure (seven days) to the drug. FIGS. 9-16 show the effect of increasing the dose of NCO-700 on the survival of a number of cancer cell lines. […] In the figures, the vertical axis is the object area, which is the number of surviving cancer cells calculated by a computer.
# T-47D (breast) = test: Cancer cell survival assay, T-47D; format: cell-based, human; conditions: seven days, alone
# Experimental: as §10, §11
# DU-145 (prostate) [3] = test: Cancer cell death assay, NCO-700 versus Calpain inhibitor 1; format: cell-based, human
# Experimental: as §6
# Based on Experiment 1 above, the anti-cancer activity of NCO-700 and Calpain inhibitor 1 (N-acetyl-leu-leu-norleucinal, C20 H37 N3 O4) was tested in cancer cell death assays of human cancer cell line DU-145.
# [4] = system: breast cancer tumor cells from patients; test: Human tumor biopsy assay (tumor cloning system), breast tumors; format: cell-based; conditions: 20 μM NCO-700, two breast tumors
# Experimental: as §1, §2, §3, §4
# LS-174T (colon) = test: Cancer cell survival assay, LS-174T; format: cell-based, human; conditions: seven days, alone
# Experimental: as §10, §11
# [5] = system: PC-3 (prostate tumor cell line); test: Apoptosis induced DNA fragmentation (agarose gel); format: cell-based, human; conditions: PC-3, 50 μM, 48 hours
# Experimental: PC-3, a prostate tumor cell line, was treated with 25 μM TOP-008, 50 μM NCO-700, or water for 48 hours. The DNA from each sample was purified by phenol extraction, and the fragmentation was resolved on an agarose gel.
# LN (prostate) = test: Cancer cell survival assay, LN; format: cell-based, human; conditions: seven days, alone
# Experimental: as §10, §11
# breast cancer cell lines = test: Cancer cell death assay (LDH release), breast lines; format: cell-based, human; conditions: compound alone, 24 hours
# Experimental: as §5, §6, §7, §8, §9
# [6] = system: ovarian cancer cell lines SW-626 and AN-3-CA; test: Cancer cell death assay (LDH release), ovarian lines; format: cell-based, human; conditions: compound alone, 24 hours
# Experimental: FIG. 1 is a graph showing the relationship between LDH released and the concentration of NCO-700 in cancer cell death assays of human ovarian cancer cell lines SW-626 and AN-3-CA.
# as §5, §6, §7, §8
# PC-3 (prostate) = test: Cancer cell survival assay, PC-3; format: cell-based, human; conditions: PC-3, seven days, alone
# Experimental: as §10, §11
smiles,measurement,setting,value
"CCOC(=O)[C@@H]1O[C@H]1C(=O)N[C@@H](CC(C)C)C(=O)N1CCN(Cc2ccc(OC)c(OC)c2OC)CC1 [NCO-700, Bis[ethyl (2R,3R)-3-[(S)-3-methyl-1-[4-(2,3,4-trimethoxyphenylmethyl)piperazin-1-ylcarbonyl]butylcarbamoyl]oxirane-2-carboxylate] Sulfate]",activity in inhibiting survival / sensitizing human tumor cells,human tumor cells,significant activity in inhibiting the survival of certain human tumor cells; also recorded: excellent activity in sensitizing to anticancer drugs
same,response of all other tumors,human tumor cells,varying degrees of positive response
same,effect on tumor size,[1]; 10 mg/kg,no effect
same,effect on tumor size,[1]; 25 mg/kg,significant anti-neoplastic effect
same,effect on tumor size,[1]; 50 mg/kg,significant anti-neoplastic effect
same,anti-neoplastic activity (LDH release),colon cancer cell lines,partly responsive
same,anti-neoplastic activity (cell survival),DU-145 (prostate) [2],significant anti-neoplastic activity
same,anti-neoplastic activity (cell survival),T-47D (breast),significant anti-neoplastic activity
same,potency relative to Calpain inhibitor 1,"DU-145 (prostate) [3]; DU-145, 100 μM",~10 fold
same,anti-cancer activity compared with Calpain inhibitor 1,"DU-145 (prostate) [3]; DU-145, FIG. 33",clearly superior to the other inhibitor
same,sensitization of tumor cells to adriamycin and vinblastine,[4],significantly sensitized these tumor cells to the actions of adriamycin (ADR) and vinblastine (VLB)
same,anti-neoplastic activity (cell survival),LS-174T (colon),significant anti-neoplastic activity
same,DNA fragmentation,[5],significant DNA fragmentation
same,anti-neoplastic activity (cell survival),LN (prostate),significant anti-neoplastic activity
same,anti-neoplastic activity (LDH release),breast cancer cell lines,the cells that were responding to NCO-700 were estrogen receptor negative
same,anti-neoplastic activity (LDH release),[6],partly responsive
same,anti-neoplastic activity (cell survival),PC-3 (prostate),significant anti-neoplastic activity
